Laboratory results: the supplement of paper PMC10307832

How the values were obtained:
Assay in all cases: relative viability (nuclei count vs DMSO), 5 days (fraction); higher = more cells survive
[1] = compound: O=C(NC1CCNCC1)c1n[nH]cc1NC(=O)c1c(Cl)cccc1Cl [AT-7519] + C[C@]1(O)C[C@@H](c2nc(-c3ccc4ccc(-c5ccccc5)nc4c3)c3c(N)nccn32)C1 [Linsitinib] (partner 1 µM)
Summary of the method: (§1)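 One day after seeding in 1536-well plates, lung cancer cell lines were dosed by pin tool. Dosing was either single-drug or a fixed anchor-drug dose plus five library-drug doses (not always all listed) in √10 steps. After 5 days, nuclei were stained in one fix-and-stain step and counted on 4× images, and relative viability is the nuclei count of treated wells over that of vehicle wells, given as the median of duplicate plates.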

[2] = compound: O=C(NC1CCNCC1)c1n[nH]cc1NC(=O)c1c(Cl)cccc1Cl [AT-7519] + CC(=O)Nc1cccc(-n2c(=O)n(C3CC3)c(=O)c3c(Nc4ccc(I)cc4F)n(C)c(=O)c(C)c32)c1 [Trametinib] (partner 0.02 µM)
Summary of the method: as §1

[3] = compound: C1=CC2=C(C=C(C(=C2N=C1)O)N=NC3=CC4=C(C=C3)C=C(C=C4)S(=O)(=O)O)S(=O)(=O)O + CCNC(=O)c1noc(-c2cc(C(C)C)c(O)cc2O)c1-c1ccc(CN2CCOCC2)cc1 [Luminespib] (partner 0.01 µM)
Summary of the method: as §1

[4] = compound: O=C(NC1CCNCC1)c1n[nH]cc1NC(=O)c1c(Cl)cccc1Cl [AT-7519] + Nc1ncn([C@H]2C[C@H](O)[C@@H](CO)O2)c(=O)n1 [Decitabine] (partner 2 µM)
Summary of the method: as §1

Row | Cell Line | relative viability ([1]; first compound 0.01 µM) | relative viability ([1]; first compound 0.03162 µM) | relative viability ([1]; first compound 0.3162 µM) | relative viability ([1]; first compound 1 µM) | relative viability ([2]; first compound 0.01 µM) | relative viability ([2]; first compound 0.03162 µM) | relative viability ([2]; first compound 0.3162 µM) | relative viability ([2]; first compound 1 µM) | relative viability ([3]; first compound 0.08 µM) | relative viability ([3]; first compound 0.253 µM) | relative viability ([3]; first compound 0.8 µM) | relative viability ([3]; first compound 2.53 µM) | relative viability ([3]; first compound 8 µM) | relative viability ([4]; first compound 0.01 µM) | relative viability ([4]; first compound 0.03162 µM) | relative viability ([4]; first compound 0.3162 µM) | relative viability ([4]; first compound 1 µM)
1 | EMC-BAC-2 | 0.823 | 0.816 | 0.778 | 0.77 | 0.92 | 0.835 | 0.845 | 0.376 | 1.25 | 1.05 | 1.2 | 1.24 | 1.13 | 0.93 | 0.924 | 0.935 | 0.692
2 | EPLC-272H | 0.999 | 1.1 | 0.945 | 1.18 | 0.309 | 0.312 | 0.275 | 0.22 | 0.264 | 0.385 | 0.388 | 0.283 | 0.383 | 0.367 | 0.322 | 0.387 | 0.298
3 | H3255 | 0.964 | 0.888 | 0.909 | 0.788 | 0.53 | 0.546 | 0.715 | 0.574 | 0.838 | 0.876 | 0.864 | 0.855 | 0.78 | 0.721 | 0.58 | 0.573 | 0.57
4 | HARA | 1.15 | 0.92 | 0.945 | 0.671 | 0.805 | 0.551 | 0.796 | 0.313 | 1.27 | 0.913 | 0.796 | 0.803 | 0.761 | 0.526 | 0.531 | 0.819 | 0.441
5 | HCC-15 | 0.961 | 0.879 | 0.724 | 0.43 | 0.404 | 0.371 | 0.374 | 0.24 | 0.345 | 0.383 | 0.304 | 0.428 | 0.368 | 0.59 | 0.567 | 0.498 | 0.441
6 | HCC-44 | 0.677 | 0.62 | 0.678 | 0.543 | 1.1 | 1.04 | 1.06 | 0.716 | – | 1.08 | 1.05 | 1.19 | 1.01 | 0.928 | 0.95 | 0.978 | 1.04
7 | HCC-78 | 0.52 | 0.452 | 0.567 | 0.374 | 0.688 | 0.712 | 0.963 | 0.46 | – | – | – | – | – | 0.688 | 0.704 | 0.696 | 0.626
8 | HCC-366 | 0.639 | 0.522 | 0.429 | 0.185 | 0.323 | 0.281 | 0.316 | 0.17 | – | – | – | – | – | 0.324 | 0.31 | 0.336 | 0.215
9 | HCC-827 | 0.959 | 0.973 | 0.946 | 0.899 | 0.488 | 0.519 | 0.542 | 0.28 | 0.859 | 0.576 | 0.592 | 0.693 | 0.683 | 0.337 | 0.347 | 0.355 | 0.3
10 | HOP-62 | 0.93 | 0.859 | 0.682 | 1.05 | 0.344 | 0.347 | 0.401 | 0.176 | 0.878 | 0.773 | 0.916 | 0.919 | 0.898 | 0.224 | 0.203 | 0.217 | 0.23
